This is an account of results in PubChem BioAssay AID330 (DTP/NCI, 2004).

In the experiment the test system is P388 leukemia ip, CD2F1 mice, survival T/C. Nature of the experiment: NCI In Vivo Anticancer Drug Screen. Data for tumor model P388 Leukemia (intraperitoneal) in CD2F1 (CDF1) mice. Conditions: endpoint: median survival time, higher = longer survival. The gist of the method: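 Mice carrying the transplanted tumor received test compound or vehicle. Survival was recorded in each group, and the value is the treated-group measurement divided by that of the vehicle-treated control group.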

The mark [1] stands for this setting: dose: 50.0 mg/kg/injection, schedule: Q01DX005 (ip), vehicle: saline with Tween-80.
The mark [2] stands for this setting: dose: 100.0 mg/kg/injection, schedule: Q01DX005 (ip), vehicle: saline with Tween-80.
Where [3] appears, read: dose: 200.0 mg/kg/injection, schedule: Q01DX005 (ip), vehicle: saline with Tween-80.
The mark [4] stands for this setting: dose: 50.0 mg/kg/injection, schedule: Q01DX009 (ip), vehicle: saline with Tween-80.
Where [5] appears, read: dose: 100.0 mg/kg/injection, schedule: Q01DX009 (ip), vehicle: saline with Tween-80.

Molecules are shown by their SMILES. Several values for one entry are separate records, joined by “and”; a condition that tells them apart may be missing. Equal values may be shown once. Inconclusive results and toxic doses are left out.

Turning to `CCOC(Cn1cc([N+](=O)[O-])c(=O)[nH]c1=O)OCC`, the T/C is, setting by setting: (dose: 25.0 mg/kg/injection, schedule: Q01DX005 (ip), vehicle: Klucel (hydroxypropylcellulose) (HPC)) 90 % of control; (dose: 50.0 mg/kg/injection, schedule: Q01DX005 (ip), vehicle: Klucel (hydroxypropylcellulose) (HPC)) 95 % of control.

Take `CCc1nc(NCCCCCCCCNc2nc(C)c(-c3ccccc3O)c(CC)n2)nc(C)c1-c1ccccc1O`: the T/C is, setting by setting: (dose: 100.0 mg/kg/injection, schedule: Q04DX003 (ip), vehicle: saline) 93 % of control; (dose: 200.0 mg/kg/injection, schedule: Q04DX003 (ip), vehicle: saline) 94 % of control; (dose: 400.0 mg/kg/injection, schedule: Q04DX003 (ip), vehicle: saline) 86 % of control.

In the case of `COc1ccc(C(=O)[Se][Se]C(=O)c2ccc(OC)cc2)cc1`, the T/C (dose: 6.25 mg/kg/injection, schedule: Q01DX009 (ip), vehicle: saline with Tween-80) was 100 % of control and the T/C (dose: 12.5 mg/kg/injection, schedule: Q01DX009 (ip), vehicle: saline with Tween-80) is 102 % of control.

As for `C=C1C(=O)C23CC1CCC2C12COC(OC(=O)CCCCCCCCCCCCCCC)C1C(C)(C)C(O)CC2OC3=O` (configuration not stated), the T/C by setting is: (dose: 7.5 mg/kg/injection, schedule: Q01DX009 (ip), vehicle: saline with Tween-80) 96 % of control; (dose: 15.0 mg/kg/injection, schedule: Q01DX009 (ip), vehicle: saline with Tween-80) 99 % of control; (dose: 30.0 mg/kg/injection, schedule: Q01DX009 (ip), vehicle: saline with Tween-80) 97 % of control; (dose: 60.0 mg/kg/injection, schedule: Q01DX009 (ip), vehicle: saline with Tween-80) 100 % of control.

Regarding `COc1cccc2c1C(=O)c1c(O)c3c(c(O)c1C2=O)CC(O)(c1cscn1)CC3O` (configuration not stated), the T/C is 104 % of control (dose: 1.56 mg/kg/injection, schedule: Q01DX009 (ip), vehicle: other); 107 % of control (dose: 3.13 mg/kg/injection, schedule: Q01DX009 (ip), vehicle: other); 101 % of control (dose: 6.25 mg/kg/injection, schedule: Q01DX009 (ip), vehicle: other); 105 % of control (dose: 12.5 mg/kg/injection, schedule: Q01DX009 (ip), vehicle: other); 104 % of control (dose: 25.0 mg/kg/injection, schedule: Q01DX009 (ip), vehicle: other); 113 % of control (dose: 50.0 mg/kg/injection, schedule: Q01DX009 (ip), vehicle: other).

For the molecule `O=C1CSC(=Nc2ccccc2F)N1c1ccccc1F`, the T/C reads like this: (dose: 50.0 mg/kg/injection, schedule: Q01DX009 (ip), vehicle: Klucel (hydroxypropylcellulose) (HPC)) 110 % of control; (dose: 100.0 mg/kg/injection, schedule: Q01DX009 (ip), vehicle: Klucel (hydroxypropylcellulose) (HPC)) 107 % of control.

For the molecule `CCOC(=O)c1csc(-c2ccc(COC(=O)c3ccccc3)o2)n1`, the T/C is, setting by setting: under setting [1], 100 % of control; under setting [2], 96 % of control; under setting [3], 89 % of control.

As to `COc1cc(C[C@@H]2COC(=O)[C@]2(O)Cc2ccc(O)c(OC)c2)ccc1O`, the T/C (dose: 1.25 mg/kg/injection, schedule: Q01DX009 (ip), vehicle: alcohol) is 100 % of control; the T/C (dose: 2.5 mg/kg/injection, schedule: Q01DX009 (ip), vehicle: alcohol) is 113 % of control; the T/C (dose: 5.0 mg/kg/injection, schedule: Q01DX009 (ip), vehicle: alcohol) is 104 % of control; the T/C (dose: 8.0 mg/kg/injection, schedule: Q01DX009 (ip), vehicle: saline + alcohol) is 124 % of control; the T/C (dose: 16.0 mg/kg/injection, schedule: Q01DX009 (ip), vehicle: saline + alcohol) was 154 % of control.

In the case of `N#Cc1ncc(C=P(c2ccccc2)(c2ccccc2)c2ccccc2)n(O)c1=N`, the T/C is 101 % of control under setting [4] and 104 % of control under setting [5].

With `C/C(N=NC(=S)N1CCCCCC1)=C1\C=CC=CN1O`, the T/C under setting [1] was 106 % of control, the T/C under setting [2] was 108 % of control and the T/C under setting [3] was 110 % of control.

Consider `Cc1ccccc1C1OC2=C(Nc3ccc(Cl)cc3N2)C1=O` (configuration not stated), for which the T/C reads like this: (dose: 60.0 mg/kg/injection, schedule: Q01DX005 (ip), vehicle: Klucel (hydroxypropylcellulose) (HPC)) 101 % of control; (dose: 120.0 mg/kg/injection, schedule: Q01DX005 (ip), vehicle: Klucel (hydroxypropylcellulose) (HPC)) 91 % of control; (dose: 240.0 mg/kg/injection, schedule: Q01DX005 (ip), vehicle: Klucel (hydroxypropylcellulose) (HPC)) 101 % of control.

On to `COC(=O)C(CCC1CCCCN1)(c1ccccc1)c1ccccc1` (configuration not stated), for which the T/C by setting is: (dose: 25.0 mg/kg/injection, schedule: Q04DX003 (ip), vehicle: saline with Tween-80) 120 % of control; (dose: 66.0 mg/kg/injection, schedule: Q04DX003 (ip), vehicle: saline with Tween-80) 100 % of control; (dose: 100.0 mg/kg/injection, schedule: Q04DX003 (ip), vehicle: saline with Tween-80) 150 % of control and 158 % of control.

With `COC1=CC(=O)c2c(O)cc(OC)c(O)c2C1=O`, the T/C by setting is: (dose: 1.25 mg/kg/injection, schedule: Q01DX009 (ip), vehicle: saline + alcohol) 104 % of control; (dose: 1.25 mg/kg/injection, schedule: Q01DX009 (ip), vehicle: saline with Tween-80) 117 % of control; (dose: 2.5 mg/kg/injection, schedule: Q01DX009 (ip), vehicle: saline + alcohol) 104 % of control; (dose: 2.5 mg/kg/injection, schedule: Q01DX009 (ip), vehicle: saline with Tween-80) 115 % of control; (dose: 5.0 mg/kg/injection, schedule: Q01DX009 (ip), vehicle: saline + alcohol) 104 % of control; (dose: 5.0 mg/kg/injection, schedule: Q01DX009 (ip), vehicle: saline with Tween-80) 110 % of control. For the same molecule, the T/C reads like this: (dose: 10.0 mg/kg/injection, schedule: Q01DX009 (ip), vehicle: saline + alcohol) 106 % of control; (dose: 10.0 mg/kg/injection, schedule: Q01DX009 (ip), vehicle: saline with Tween-80) 110 % of control; (dose: 20.0 mg/kg/injection, schedule: Q01DX009 (ip), vehicle: saline + alcohol) 106 % of control; (dose: 20.0 mg/kg/injection, schedule: Q01DX009 (ip), vehicle: saline with Tween-80) 106 % of control.

With `O=c1c2c([nH]c3c1ccc1[nH]c4c(c(=O)c13)CCCC4)CCCC2`, the T/C is, setting by setting: under setting [4], 90 % of control; under setting [5], 91 % of control; (dose: 200.0 mg/kg/injection, schedule: Q01DX009 (ip), vehicle: saline with Tween-80) 97 % of control.

Regarding `CCOC(=O)CCC(=O)Oc1ccc2c(c1)C(=O)c1ccc(OC(=O)CCC(=O)OCC)cc1C2=O`, the T/C runs as follows: (dose: 1.87 mg/kg/injection, schedule: Q01DX005 (ip), vehicle: Klucel (hydroxypropylcellulose) (HPC)) 99 % of control; (dose: 3.75 mg/kg/injection, schedule: Q01DX005 (ip), vehicle: Klucel (hydroxypropylcellulose) (HPC)) 99 % of control; (dose: 7.5 mg/kg/injection, schedule: Q01DX005 (ip), vehicle: Klucel (hydroxypropylcellulose) (HPC)) 99 % of control and 91 % of control.

In the case of `CC1=CC(=O)C2(C)C1=CC(=O)C13COC4OC(CC1C4=O)C(O)C23` (configuration not stated), the T/C is, setting by setting: (dose: 1.0 mg/kg/injection, schedule: Q01DX009 (ip), vehicle: Klucel (hydroxypropylcellulose) (HPC)) 97 % of control; (dose: 2.0 mg/kg/injection, schedule: Q01DX009 (ip), vehicle: Klucel (hydroxypropylcellulose) (HPC)) 94 % of control; (dose: 4.0 mg/kg/injection, schedule: Q01DX009 (ip), vehicle: Klucel (hydroxypropylcellulose) (HPC)) 98 % of control; (dose: 8.0 mg/kg/injection, schedule: Q01DX009 (ip), vehicle: Klucel (hydroxypropylcellulose) (HPC)) 102 % of control.

For the molecule `O=C(Nc1ccccc1)ON=C(c1ccccc1)c1ccccc1`, the T/C runs as follows: (dose: 100.0 mg/kg/injection, schedule: Q01DX001 (ip), vehicle: saline with Tween-80) 97 % of control; (dose: 200.0 mg/kg/injection, schedule: Q01DX001 (ip), vehicle: saline with Tween-80) 93 % of control; (dose: 400.0 mg/kg/injection, schedule: Q01DX001 (ip), vehicle: saline with Tween-80) 112 % of control.

As to `CSc1nccc(=O)n1-c1ccccc1F`, the T/C is, setting by setting: (dose: 25.0 mg/kg/injection, schedule: Q04DX002 (ip), vehicle: Klucel (hydroxypropylcellulose) (HPC)) 102 % of control; (dose: 50.0 mg/kg/injection, schedule: Q04DX002 (ip), vehicle: Klucel (hydroxypropylcellulose) (HPC)) 104 % of control; (dose: 100.0 mg/kg/injection, schedule: Q04DX002 (ip), vehicle: Klucel (hydroxypropylcellulose) (HPC)) 102 % of control.

On to `CCOC(=S)SCC(=O)NC`, for which the T/C is 98 % of control (dose: 50.0 mg/kg/injection, schedule: Q01DX009 (ip), vehicle: saline); 107 % of control (dose: 100.0 mg/kg/injection, schedule: Q01DX009 (ip), vehicle: saline); 104 % of control (dose: 200.0 mg/kg/injection, schedule: Q01DX009 (ip), vehicle: saline).
